Assay results published in US20240173311A1, “METHODS AND COMPOSITIONS FOR MODULATING FGF ACTIVITY” (Recovery Therapeutics, Inc., priority 2021, published 2024).
Read-outs that look alike come from different tables or passages of the source. One block for each compound: values may come before it.

Experiments:
[1] = target: T1, FGFR1 in recombinant human FGFR1/FGF2 complex (Homo sapiens, UniProt P11362); assay: Thermal shift assay (TSA), ΔTm of FGFR1 peak; format: binding; settings: for ΔTm at 100 µM / ΔTm at 10 µM / ΔTm at 25 µM: read-out: ΔTm (° C.) −FGFR1
T1 construct: made in house; host or cells: Escherichia coli BL21 (DE3) Star
T1 sequence (P11362 142-365 limits assumed): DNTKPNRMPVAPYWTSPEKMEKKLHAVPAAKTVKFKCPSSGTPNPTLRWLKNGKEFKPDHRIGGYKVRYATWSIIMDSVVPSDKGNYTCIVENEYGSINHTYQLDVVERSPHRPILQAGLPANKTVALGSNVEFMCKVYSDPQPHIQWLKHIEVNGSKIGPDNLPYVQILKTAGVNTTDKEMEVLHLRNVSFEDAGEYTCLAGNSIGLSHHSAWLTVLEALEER
T1 sequence (P09038 156-288 partner limits assumed): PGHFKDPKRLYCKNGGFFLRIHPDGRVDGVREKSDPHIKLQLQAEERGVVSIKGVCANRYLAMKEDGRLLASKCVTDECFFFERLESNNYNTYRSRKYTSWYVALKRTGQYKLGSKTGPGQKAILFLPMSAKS
Procedure: (§1) TSA was utilized to biophysically characterize the recombinant human FGFR1/FGF2 complex in the presence or absence of selected compounds of formula (I), Compounds 1, 2a-2f, 20, 5, 60, and 8-13. Compound 1 was prepared according to the procedures described in Example 1, and the other compounds were obtained from commercial sources. The assay functions by protein denaturation over a temperature gradient. During protein unfolding, exposed hydrophobic regions bind a dye and fluoresce due to solvent relaxation effects. Changes in the melting temperature of the protein complex in the presence of each compound were monitored and compounds were screened/ranked using this method.
(§2) Thawed aliquots of purified FGF2 (1.0 mg/mL) and FGFR1 (1.6 mg/mL) proteins were mixed in a 1:1 molar ratio ([…]) on ice for 30 min at 4° C. and plated prior to the thermal shift assay (TSA).
(§3) Complex formation was verified by loading the complexed material on a size exclusion column (superdex 10 300GL S200) and observing the monodisperse peak corresponding to the FGF2/FGFR1 complex (˜ 40 kDa). Compounds described herein were screened in dose response format (0-100 μM) with the FGF2/FGFR1 complex in triplicates. FGF2/ FGFR1/compound complexes were mixed in a 1000:1 ratio with Sypro Orange dye (Sigma-Aldrich). The samples were processed using a Bio-Rad CFX C96 Touch quantitative polymerase chain reaction and run using the FRET assay settings with a heating ramp of 0.3° C./s cycling from 4 to 100° C. Data analysis was performed using the Bio-Rad CFX Manager Software (version 3.1, Bio-Rad) and changes in the melting temperature (Tm) of the complex in the presence of each compound were monitored. The results are shown in Table 9 below and also in FIG. 1 (for Compound 10).

[2] = target: T2, FGF2 in recombinant human FGFR1/FGF2 complex (Homo sapiens, UniProt P09038); assay: Thermal shift assay (TSA), ΔTm of FGF2 peak; format: binding; settings: for ΔTm at 100 µM / ΔTm at 10 µM / ΔTm at 25 µM: read-out: ΔTm (° C.) −FGF2
T2 construct: made in house; host or cells: Escherichia coli BL21 (DE3) Star
T2 sequence (P09038 156-288 limits assumed): as the sequence (P09038 156-288 partner limits assumed) above
T2 sequence (P11362 142-365 partner limits assumed): as the sequence (P11362 142-365 limits assumed) above
Procedure: as §1, §2, §3

Compound: O=Cc1ccccc1 [Compound 1a]
ΔTm at 100 µM [1]: 0.5 °C
ΔTm at 100 µM [2]: 0 °C

Compound: O=Cc1ccc(F)cc1 [Compound 1b]
ΔTm at 100 µM ([1]; 100 μM compound): 0 °C
ΔTm at 100 µM ([2]; 100 μM compound): 1 °C

Compound: O=Cc1ccc(Cl)cc1 [Compound 1c]
ΔTm at 10 µM [1]: -2.2 °C
ΔTm at 10 µM [2]: 2 °C

Compound: O=Cc1ccc(Br)cc1 [Compound 1d]
ΔTm at 25 µM [1]: -2.1 °C
ΔTm at 25 µM [2]: 1.6 °C

Compound: O=Cc1ccccc1F [Compound 1e]
ΔTm at 100 µM ([1]; 100 μM compound): 0 °C
ΔTm at 100 µM ([2]; 100 μM compound): 0.3 °C

Compound: O=Cc1cccc(F)c1 [Compound 1f, 3-fluorobenzaldehyde]
ΔTm at 50 µM ([1]; 50 μM compound): 4 °C
ΔTm at 50 µM ([2]; 50 μM compound): -0.4 °C

Compound: CCN(CC)c1ccc(C=O)cc1 [Compound 1o, 4-diethylaminobenzaldehyde]
ΔTm at 25 µM [1]: 5 °C
ΔTm at 25 µM [2]: -2 °C

Compound: CCN(CC)c1ccc(/C=N/c2ccccc2)cc1 [Compound 4on]
ΔTm at 25 µM ([1]; 25 μM compound): 1.5 °C
ΔTm at 25 µM ([2]; 25 μM compound): -0.5 °C

Compound: CCN(CC)c1ccc(/C=N/Cc2ccccc2)cc1 [Compound 4ow, (E)-4-((benzylimino)methyl)-N,N-diethylaniline]
ΔTm at 25 µM ([1]; 25 μM compound): 4 °C
ΔTm at 25 µM ([2]; 25 μM compound): -2 °C

Compound: CCN(CC)c1ccc(/C=N/c2ccc(C(F)(F)F)cc2)cc1 [Compound 4oy, (E)-N, N-diethyl-4-(((4-(trifluoromethyl)phenyl)imino)methyl)aniline]
melting point: 129.3 to 129.6 °C
ΔTm at 50 µM ([1]; 50 μM compound): 7.8 °C
ΔTm at 50 µM ([2]; 50 μM compound): -4.5 °C

Compound: CCN(CC)c1ccc(/C=N/O)cc1 [Compound 5o]
ΔTm at 2 µM ([1]; 2 μM compound): 3.5 °C
ΔTm at 2 µM ([2]; 2 μM compound): -1 °C

Compound: CCN(CC)c1ccc(C(O)c2cccc(OC(F)(F)F)c2)cc1 (centres unmarked) [Compound 8om, (4-(diethylamino)phenyl)(3-(trifluoromethoxy)phenyl)methano]
ΔTm (° C.) −FGFR1 ([1]; 10 μM compound): +0.3 °C
ΔTm (° C.) −FGF2 ([2]; 10 μM compound): 0 °C

Compound: O=C(c1ccccc1)c1cccc(F)c1 [Compound 9af]
ΔTm at 10 µM ([1]; 10 μM compound): 9.8 °C
ΔTm at 10 µM ([2]; 10 μM compound): -6 °C

Compound: CCN(CC)c1ccc(C(=O)c2ccccc2)cc1 [Compound 9oa]
ΔTm at 10 µM ([1]; 10 μM compound): 6 °C
ΔTm at 10 µM ([2]; 10 μM compound): -0.3 °C

Compound: CCN(CC)c1ccc(/C=N/N=C/c2ccc(N(CC)CC)cc2)cc1 [Compound 10o, 4,4′-((1E,1′E)-hydrazine-1,2-diylidenebis(methaneylylidene))bis(N,N-diethylaniline)]
ΔTm at 2 µM ([1]; 2 μM compound): 11 °C
ΔTm at 2 µM ([2]; 2 μM compound): -5.2 °C

Compound: CCN(CC)c1ccc(C(C)=O)cc1 [Compound 16]
ΔTm at 25 µM [1]: 0.2 °C
ΔTm at 25 µM [2]: 0 °C

Compound: CCN(CC)c1ccc(C(=O)O)cc1 [Compound 17]
ΔTm at 100 µM ([1]; 100 μM compound): 2.5 °C
ΔTm at 100 µM ([2]; 100 μM compound): 0 °C

Compound: (4-(diethylamino)phenyl)(3-(trifluoromethoxy)phenyl)methanone [Compound 9om]
ΔTm (° C.) −FGFR1 ([1]; 100 μM compound): +1.2 °C
ΔTm (° C.) −FGF2 ([2]; 100 μM compound): +1.8 °C

Compound: (4-(diethylamino)phenyl)(3-(trifluoromethyl)phenyl)methanone [Compound 9ob]
ΔTm (° C.) −FGFR1 ([1]; 50 μM compound): +1.2 °C
ΔTm (° C.) −FGF2 ([2]; 50 μM compound): +1.5 °C

Compound: (4-(diethylamino)phenyl)(3-methoxyphenyl)methanone [Compound 9oc]
ΔTm (° C.) −FGFR1 ([1]; 2 μM compound): +9.5 °C
ΔTm (° C.) −FGF2 ([2]; 2 μM compound): −5.6 °C

Continued, values first:

ΔTm at 50 µM ([1]; 50 μM compound): 2 °C
ΔTm at 50 µM ([2]; 50 μM compound): -4.2 °C
Compound: CCN(CC)c1ccc(C2N[C@@H](C(=O)O)C(C)(C)S2)cc1 (stereo partly drawn) [Compound 11o, (4S)-2-(4-(diethylamino)phenyl)-5,5-dimethylthiazolidine-4-carboxylic acid]

ΔTm at 50 µM ([1]; 50 μM compound): 0 °C
ΔTm at 50 µM ([2]; 50 μM compound): -2.1 °C
Compound: CCN(CC)c1ccc(/C=N/NC(=O)CN(C)C)cc1 [Compound 13oa, (E)-N′-(4-(diethylamino)benzylidene)-2-(dimethylamino)acetohydrazide]

ΔTm at 25 µM ([1]; 25 μM compound): 1.5 °C
ΔTm at 25 µM ([2]; 25 μM compound): -2.7 °C
Compound: CCN(CC)c1ccc(/C=N/NC(=O)C2CCOCC2)cc1 [Compound 13ob, (E)-N′-(4-(diethylamino)benzylidene)tetrahydro-2H-pyran-4-carbohydrazide]

ΔTm at 10 µM ([1]; 10 μM compound): -1.5 °C
ΔTm at 10 µM ([2]; 10 μM compound): -0.5 °C
Compound: CCN(CC)c1ccc(/C=N/NC(=O)c2ccc(O)cc2)cc1 [Compound 13oe]

ΔTm at 10 µM ([1]; 10 μM compound): 0.6 °C
ΔTm at 10 µM ([2]; 10 μM compound): 0 °C
Compound: CCN(CC)c1ccc(/C=N/NC(=O)C2CCN(CCO)CC2)cc1 [Compound 13oh, (E)-N′-(4-(diethylamino)benzylidene)-1-(2-hydroxyethyl)piperidine-4-carbohydrazide]

ΔTm at 100 µM ([1]; 100 μM compound): 2 °C
ΔTm at 100 µM ([2]; 100 μM compound): -1.5 °C
Compound: CCN(CC)c1ccc(/C=N/N2CCN(C(c3ccccc3)c3ccccc3)CC2)cc1 [Compound 15oa, (E)-4-(((4-benzhydrylpiperazin-1-yl)imino)methyl)-N,N-diethylaniline]

ΔTm at 25 µM ([1]; 25 μM compound): 0 °C
ΔTm at 25 µM ([2]; 25 μM compound): -1 °C
Compound: CCN(CC)c1ccc(/C=N/N(c2ccccc2)c2ccccc2)cc1 [Compound 15ob]

ΔTm at 2 µM ([1]; 2 μM compound): 4.3 °C
ΔTm at 2 µM ([2]; 2 μM compound): -2.4 °C
Compound: CCN(CC)c1ccc(/C=N/Nc2ccccc2)cc1 [Compound 15oc]

ΔTm at 10 µM ([1]; 10 μM compound): 0 °C
ΔTm at 10 µM ([2]; 10 μM compound): -1 °C
Compound: CCN(CC)c1ccc(/C=N/Nc2ccc(C#N)cc2)cc1 [Compound 15od, (E)-4-(2-(4-(diethylamino)benzylidene)hydrazineyl)benzonitrile]
